From US7745457B2, “Meridamycin analogues for the treatment of neurodegenerative disorders” (Wyeth LLC, priority 2006, dated 2010) come the findings set out here.

Bounds are passed on as bounds.

The assay concerns cortical neuron cultures. Kind of assay: Neurite outgrowth in dissociated cortical neuron cultures. It is filed as cell-based. Particulars: Cortical neurone; embryonic day 15 rat cortical neurons, 72 hours treatment, TUJ-1 staining, Cellomics ArrayScan ENO algorithm; read-out: EC50 in cortical neuron assays (neurite outgrowth). As to the method: Dissociated cortical neuron cultures were prepared as previously described (Pong et al., 2001). Briefly, embryonic day 15 rat fetuses were collected and dissected in ice-cold PBS. Dissected cortices were pooled together and transferred to an enzymatic dissociation medium containing papain. After 30 minutes, the tissue was mechanically triturated with a fire-polished glass Pasteur pipette. Single-cell suspensions in complete media were seeded on poly-L-ornithine and laminin coated 96-well plates. 24 hours later, cultures were treated with various concentrations of compound for 72 hours. The cultures were then fixed and stained with an anti-tubulin primary antibody (TUJ-1) and a fluorescent-tagged secondary antibody. Neurite outgrowth was determined by using the Enhanced Neurite Outgrowth (ENO) algorithm with the Cellomics ArrayScan and expressed as average neurite length or total neurite length per cell.
The term EC50 denotes the midpoint of the concentration-response curve. As to `CC/C1=C\CC(/C(C)=C/C(C)C(C)O)OC(=O)C2CCCCN2C(=O)C(=O)C2(O)OC(CCC2C)CC2OC(C)(C)OC(CC3CC(OC(C)(C)O3)/C(C)=C/C(C)CC(C)C1O)C2C` (stereo not drawn) [Example 1], the EC50 was below 1000 nM.
As for `CC/C1=C\CC(/C(C)=C/C(C)C(C)OC(C)=O)OC(=O)C2CCCCN2C(=O)C(=O)C2(O)OC(CCC2C)CC(OC(C)=O)C(C)C(OC(C)=O)CC(OC(C)=O)CC(OC(C)=O)/C(C)=C/C(C)CC(C)C1OC(C)=O` (stereo not drawn) [Example 2], the figure is below 1000 nM; as for `CC/C1=C\CC(/C(C)=C/C(C)C(C)OC(C)=O)OC(=O)C2CCCCN2C(=O)C(=O)C2(O)OC(CCC2C)CC(O)C(C)C(O)CC(OC(C)=O)CC(OC(C)=O)/C(C)=C/C(C)CC(C)C1OC(C)=O` (stereo not drawn) [Example 3], below 1000 nM.
Turning to `CC/C1=C\CC(/C(C)=C/C(C)C(C)O)OC(=O)C2CCCCN2C(=O)C(=O)C2(O)OC(CCC2C)CC(O)C(C)C(O)CC2CC(OC(C)(C)O2)/C(C)=C/C(C)CC(C)C1O` (stereo not drawn) [Example 4], the EC50 is below 1000 nM.
Next, `CC/C1=C\CC(/C(C)=C/C(C)C(C)OC(C)=O)OC(=O)C2CCCCN2C(=O)C(=O)C2(O)OC(CCC2C)CC(O)C(C)C(OC(C)=O)CC(OC(C)=O)CC(OC(C)=O)/C(C)=C/C(C)CC(C)C1OC(C)=O` (stereo not drawn) [Example 5]: below 1000 nM.
As for `CC/C1=C\CC(/C(C)=C/C(C)C(C)=O)OC(=O)C2CCCCN2C(=O)C(=O)C2(O)OC(CCC2C)CC2OC(C)(C)OC(CC3CC(OC(C)(C)O3)/C(C)=C/C(C)CC(C)C1=O)C2C` (stereo not drawn) [Example 6], the figure is below 1000 nM.
